Residue numbers refer to the chain shown, from its start.
Columns and labels:
[1] = tested on: T1, Nonstructural protein 5A (Hepatitis C virus), Q5L478 [Y93H]; experiment: Inhibition of HCV genotype-1a NS5A Y93H mutant infected in human HuH7 cells by luciferase reporter gene assay; type: cell-based; conditions: Hepatitis C virus subtype 1a; Huh-7
T1 sequence (whole entry): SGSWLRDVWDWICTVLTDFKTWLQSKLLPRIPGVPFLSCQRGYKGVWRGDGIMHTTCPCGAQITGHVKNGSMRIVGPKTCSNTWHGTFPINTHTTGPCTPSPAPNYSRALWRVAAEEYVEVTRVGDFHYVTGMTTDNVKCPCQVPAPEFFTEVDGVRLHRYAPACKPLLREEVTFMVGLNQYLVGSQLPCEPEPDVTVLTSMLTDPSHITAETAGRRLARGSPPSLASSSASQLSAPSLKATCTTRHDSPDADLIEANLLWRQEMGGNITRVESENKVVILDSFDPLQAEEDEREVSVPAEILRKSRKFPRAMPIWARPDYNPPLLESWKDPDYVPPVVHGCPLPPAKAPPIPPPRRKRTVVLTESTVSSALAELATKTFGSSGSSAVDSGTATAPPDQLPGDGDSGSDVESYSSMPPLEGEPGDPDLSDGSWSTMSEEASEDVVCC

[2] = tested on: Hepatitis C virus subtype 1a; experiment: Selectivity ratio for EC90 for HCV genotype-1a NS5A Y93H mutant to EC90 for HCV genotype-1a NS5A
[3] = Oral bioavailability in rat at 10 mg/kg measured after 24 hrs by LC/MS method; type: ADME, organism-based; conditions: in vivo
[4] = Half life in dog at 1 mg/kg, iv by LC/MS method; type: ADME, organism-based, Canis lupus familiaris; conditions: in vivo
[5] = tested on: Nonstructural protein 5A (Hepatitis C virus), Q5L478 [UNDEFINED MUTATION]; experiment: Inhibition of HCV genotype-1a NS5A L31V mutant infected in human HuH7 cells by luciferase reporter gene assay; type: cell-based; conditions: Hepatitis C virus subtype 1a; Huh-7
[6] = Plasma clearance in rat at 2 mg/kg, iv measured after 24 hrs by LC/MS method; type: ADME, organism-based
[7] = AUC (0 to t) in dog at 5 mg/kg, po measured after 24 hrs by LC/MS method; type: ADME, organism-based, Canis lupus familiaris; set-up: time < 24 hr, dose 5 mg/kg, route oral; conditions: in vivo
Huh-7 [8] = experiment: Inhibition of HCV genotype-3a NS5A infected in human HuH7 cells by luciferase reporter gene assay; type: cell-based; conditions: Hepatitis C virus subtype 3a
[9] = tested on: Hepatitis C virus subtype 1a; experiment: Selectivity ratio for EC90 for HCV genotype-1a NS5A L31V mutant to EC90 for HCV genotype-1a NS5A
Huh-7 [10] = experiment: Inhibition of HCV genotype-1a NS5A infected in human HuH7 cells by luciferase reporter gene assay; type: cell-based; conditions: Hepatitis C virus subtype 1a
[11] = Selectivity ratio for EC90 for HCV genotype-3a NS5A to EC90 for HCV genotype-1a NS5A
[12] = Half life in rat at 2 mg/kg, iv by LC/MS method; type: ADME, organism-based; conditions: in vivo
[13] = Drug uptake in rat at 10 mg/kg, po measured at 24 hrs post dose by LC/MS method; type: ADME, organism-based; conditions: in vivo, read-out: Drug uptake
Huh-7 [14] = experiment: Inhibition of HCV genotype-2b NS5A harboring methionine at position 31 infected in human HuH7 cells by luciferase reporter gene assay; type: cell-based; conditions: Hepatitis C virus subtype 2b
[15] = Plasma clearance in dog at 1 mg/kg, iv measured after 24 hrs by LC/MS method; type: ADME, organism-based, Canis lupus familiaris
[16] = Selectivity ratio for EC90 for HCV genotype-4a NS5A to EC90 for HCV genotype-1a NS5A
[17] = Drug uptake in dog at 5 mg/kg, po measured at 24 hrs post dose by LC/MS method; type: ADME, organism-based, Canis lupus familiaris; conditions: in vivo, read-out: Drug uptake
[18] = AUC in rat at 10 mg/kg, po measured after 24 hrs by LC/MS method; type: ADME, organism-based; set-up: time < 24 hr, dose 10 mg/kg, route oral; conditions: in vivo
[19] = Selectivity ratio for EC90 for HCV genotype-2b NS5A harboring methionine at position 31 to EC90 for HCV genotype-1a NS5A
[20] = Oral bioavailability in dog at 5 mg/kg measured after 24 hrs by LC/MS method; type: ADME, organism-based, Canis lupus familiaris; conditions: in vivo
Huh-7 [21] = experiment: Inhibition of HCV genotype-4a NS5A infected in human HuH7 cells by luciferase reporter gene assay; type: cell-based; conditions: Hepatitis C virus subtype 4a
Huh-7 [22] = experiment: Inhibition of HCV genotype-5a NS5A infected in human HuH7 cells by luciferase reporter gene assay; type: cell-based; conditions: Hepatitis C virus subtype 5a
Huh-7 [23] = experiment: Inhibition of HCV genotype-2a NS5A infected in human HuH7 cells by luciferase reporter gene assay; type: cell-based; conditions: Hepatitis C virus subtype 2a
[24] = tested on: Nonstructural protein 5A (Hepatitis C virus), Q5L478 [UNDEFINED MUTATION]; experiment: Inhibition of HCV genotype-1a NS5A Q30R mutant infected in human HuH7 cells by luciferase reporter gene assay; type: cell-based; conditions: Hepatitis C virus subtype 1a; Huh-7
[25] = tested on: T2, Nonstructural protein 5A (Hepatitis C virus), Q5L478 [Y93C]; experiment: Inhibition of HCV genotype-1a NS5A Y93C mutant infected in human HuH7 cells by luciferase reporter gene assay; type: cell-based; conditions: Hepatitis C virus subtype 1a; Huh-7
T2 sequence (whole entry): T1 sequence (whole entry) with H93C

Huh-7 [26] = experiment: Inhibition of HCV genotype-6d NS5A infected in human HuH7 cells by luciferase reporter gene assay; type: cell-based; conditions: Hepatitis C virus subtype 6d
Huh-7 [27] = experiment: Inhibition of HCV genotype-6 NS5A infected in human HuH7 cells by luciferase reporter gene assay; type: cell-based; conditions: Hepatitis C virus genotype 6
Huh-7 [28] = experiment: Inhibition of HCV genotype-1b NS5A infected in human HuH7 cells by luciferase reporter gene assay; type: cell-based; conditions: Hepatitis C virus subtype 1b
[29] = tested on: T1, Nonstructural protein 5A (Hepatitis C virus), Q5L478 [Y93H]; experiment: Inhibition of HCV genotype-1b NS5A Y93H mutant infected in human HuH7 cells by luciferase reporter gene assay; type: cell-based; conditions: Hepatitis C virus subtype 1b; Huh-7

SMILES	EC90 [1]	Selectivity ratio [2]	bioavailability [3]	half-life [4]	EC90 [5]	clearance [6]	AUC(0-t) at 24 h [7]	EC90 (Huh-7 [8])	EC90 (Huh-7 [10])	Selectivity ratio [11]	half-life [12]	concentration at 24 h [13]	EC90 (Huh-7 [14])	clearance [15]	Selectivity ratio [16]	concentration at 24 h [17]	AUC at 24 h [18]	Selectivity ratio [19]	bioavailability [20]	EC90 (Huh-7 [21])	also measured
CCc1ccc([C@@H]2Oc3cc(-c4cnc([C@@H]5CCCN5C(=O)[C@@H](NC(=O)OC)C(C)C)[nH]4)cc(F)c3-c3cc4cc(-c5cnc([C@@H]6CCCN6C(=O)[C@@H](NC(=O)OC)C(C)C)[nH]5)ccc4n32)s1	0.06 nM	20	3%	15 h	0.067 nM	8 mL/min/kg	13.8 µM·h	0.002 nM	0.003 nM	1	6.4 h	17 nM	0.9 nM	1.7 mL/min/kg	1	172 nM	0.7 µM·h	300	21%	0.003 nM	Selectivity ratio [9]: 22
CCCc1ncc(C2Oc3cc(-c4cnc([C@@H]5CCCN5C(=O)[C@@H](NC(=O)OC)C(C)C)[nH]4)cc(F)c3-c3cc4cc(-c5cnc([C@@H]6CCCN6C(=O)[C@@H](NC(=O)OC)C(C)C)[nH]5)ccc4n32)s1 (stereo not given in full)	0.088 nM	88	7%	11.5 h	0.02 nM	16 mL/min/kg	11 µM·h	0.002 nM	0.001 nM	2	4.3 h	4 nM	0.14 nM	1.8 mL/min/kg	10	76.7 nM	0.8 µM·h	140	23%	0.01 nM	Selectivity ratio [9]: 20
COC(=O)N[C@H](C(=O)N1CCC[C@H]1c1ncc(-c2cc(F)c3c(c2)OC(c2ccc(C4CC4)s2)n2c-3cc3cc(-c4cnc([C@@H]5CCCN5C(=O)[C@@H](NC(=O)OC)C(C)C)[nH]4)ccc32)[nH]1)C(C)C (stereo not given in full)	0.11 nM	37	5%	10 h	0.02 nM	11 mL/min/kg	10.6 µM·h	0.007 nM	0.003 nM	2	7 h	16 nM	0.16 nM	1.5 mL/min/kg	3	134 nM	1.1 µM·h	53 to 200	11%	0.009 nM	–
COC(=O)N[C@H](C(=O)N1CCC[C@H]1c1ncc(-c2cc(F)c3c(c2)OC(c2cccs2)n2c-3cc3cc(-c4cnc([C@@H]5CCCN5C(=O)[C@@H](NC(=O)OC)C(C)C)[nH]4)ccc32)[nH]1)C(C)C (mixture of isomers)	3 to 3.4 nM	100	–	–	0.76 nM	–	–	0.016 nM	0.03 nM	–	–	–	8 to 8.2 nM	–	–	–	–	267	–	–	–
COC(=O)N[C@H](C(=O)N1CCC[C@H]1c1ncc(-c2cc(F)c3c(c2)O[C@@H](c2ccc4c(c2)OCCC4)n2c-3cc3cc(-c4cnc([C@@H]5CCCN5C(=O)[C@@H](NC(=O)OC)C(C)C)[nH]4)ccc32)[nH]1)C(C)C	0.5 nM	167	–	–	–	–	–	–	0.003 nM	–	–	–	0.3 nM	–	–	–	–	100	–	–	–
CCOc1cccc([C@@H]2Oc3cc(-c4cnc([C@@H]5CCCN5C(=O)[C@@H](NC(=O)OC)C(C)C)[nH]4)cc(F)c3-c3cc4cc(-c5cnc([C@@H]6CCCN6C(=O)[C@@H](NC(=O)OC)C(C)C)[nH]5)ccc4n32)c1	2 nM	200	–	–	–	–	–	–	0.01 nM	–	–	–	8 nM	–	–	–	–	800	–	–	–
COC(=O)N[C@H](C(=O)N1CCC[C@H]1c1nc(-c2ccc3c(c2)O[C@@H](c2ccccc2)n2c-3cc3cc(-c4c[nH]c([C@@H]5CCCN5C(=O)[C@@H](NC(=O)OC)C(C)C)n4)ccc32)c[nH]1)C(C)C	–	–	–	–	–	–	–	0.12 nM	0.006 nM	–	–	–	11 nM	–	–	–	–	–	–	0.016 nM	EC90 (Huh-7 [22]): 0.002 nM; EC90 (Huh-7 [23]): 0.019 nM; EC90 [24]: 2.5 nM; EC90 [25]: 1.1 nM; EC90 (Huh-7 [26]): 0.008 nM; EC90 (Huh-7 [27]): 0.017 nM; EC90 (Huh-7 [28]): 0.006 nM; EC90 [29]: 0.89 nM
COC(=O)N[C@H](C(=O)N1CCC[C@H]1c1ncc(-c2cc(F)c3c(c2)O[C@@H](c2cnc(C4CC4)s2)n2c-3cc3cc(-c4cnc([C@@H]5CCCN5C(=O)[C@@H](NC(=O)OC)C(C)C)[nH]4)ccc32)[nH]1)C(C)C [RUZASVIR]	0.067 nM	22	4%	4 h	0.016 nM	13 mL/min/kg	12.9 µM·h	0.006 to 0.007 nM	0.003 nM	2	4.7 h	3 nM	0.036 nM	1.6 mL/min/kg	2	43 nM	0.4 µM·h	12	22%	0.007 to 0.011 nM	EC90 (Huh-7 [22]): 0.001 nM; EC90 (Huh-7 [23]): 0.001 nM; EC90 [24]: 0.011 nM; EC90 [25]: 0.002 nM; EC90 (Huh-7 [26]): 0.027 nM; EC90 (Huh-7 [27]): 0.007 nM; Selectivity ratio [9]: 5; EC90 (Huh-7 [28]): 0.003 nM; EC90 [29]: 0.009 nM
CCc1ccc([C@@H]2Oc3cc(-c4cnc([C@@H]5CCCN5C(=O)[C@@H](NC(=O)OC)C(C)C)[nH]4)ccc3-c3cc4cc(-c5cnc([C@@H]6CCCN6C(=O)[C@@H](NC(=O)OC)C(C)C)[nH]5)ccc4n32)s1	3.4 nM	680	–	–	–	–	–	–	0.005 nM	–	–	–	0.25 nM	–	–	–	–	50	–	–	–
COC(=O)N[C@H](C(=O)N1CCC[C@H]1c1ncc(-c2ccc3c(c2)OC(c2ccc(C4CC4)s2)n2c-3cc3cc(-c4cnc([C@@H]5CCCN5C(=O)[C@@H](NC(=O)OC)C(C)C)[nH]4)ccc32)[nH]1)C(C)C (stereo not given in full)	1.2 nM	400	–	–	–	–	–	–	0.003 nM	–	–	–	0.35 nM	–	–	–	–	117	–	–	–
CCOc1cccc([C@@H]2Oc3cc(-c4cnc([C@@H]5CCCN5C(=O)[C@@H](NC(=O)OC)C(C)C)[nH]4)ccc3-c3cc4cc(-c5cnc([C@@H]6CCCN6C(=O)[C@@H](NC(=O)OC)C(C)C)[nH]5)ccc4n32)c1	16 nM	800	–	–	–	–	–	–	0.02 nM	–	–	–	22 nM	–	–	–	–	1100	–	–	–
